Test results: patent publication US20040009599A1, “Antisense modulation of cellular inhibitor of apoptosis-1 expression” (priority 1998, published 2004)
Strand notation (5' to 3'): a small letter for the sugar, then the base; units joined by * are phosphorothioate-linked, units joined directly phosphodiester-linked; [ ] holds rarer units or linkages, { } end groups; capitals alone tell only the bases. d = 2'-deoxy (DNA)

These substances were tested on human Cellular Inhibitor of Apoptosis-1 RNA (assay: Inhibition of Cellular Inhibitor of Apoptosis-1 mRNA levels by quantitative real-time PCR after oligonucleotide treatment of cells). Settings: phosphorothioate oligodeoxynucleotides; oligonucleotide at final concentration of 150 nM with LIPOFECTIN; real-time PCR; averages from three experiments.
Format: cell-based
Protocol: Cells were harvested 16 hours after oligonucleotide treatment.
Poly(A)+ mRNA was isolated according to Miura et al., Clin. Chem., 1996, 42, 1758-1764. Other methods for poly(A)+ mRNA isolation are taught in, for example, Ausubel, F. M. et al., Current Protocols in Molecular Biology, Volume 1, pp. 4.5.1-4.5.3, John Wiley & Sons, Inc., 1993. […] 60 μL lysis buffer (10 mM Tris-HCl, pH 7.6, 1 mM EDTA, 0.5 M NaCl, 0.5% NP-40, 20 mM vanadyl-ribonucleoside complex) was added to each well, the plate was gently agitated and then incubated at room temperature for five minutes. 55 μL of lysate was transferred to Oligo d(T) coated 96-well plates (AGCT Inc., Irvine Calif.). Plates were incubated for 60 minutes at room temperature, washed 3 times with 200 μL of wash buffer (10 mM Tris-HCl pH 7.6, 1 mM EDTA, 0.3 M NaCl). After the final wash, the plate was blotted on paper towels to remove excess wash buffer and then air-dried for 5 minutes. 60 μL of elution buffer (5 mM Tris-HCl pH 7.6), preheated to 70° C. was added to each well, the plate was incubated on a 90° C. hot plate for 5 minutes, and the eluate was then transferred to a fresh 96-well plate.
Cellular Inhibitor of Apoptosis-1 probes and primers were designed to hybridize to the human Cellular Inhibitor of Apoptosis-1 sequence, using published sequence information (GenBank accession number U37547, incorporated herein as SEQ ID NO:1).
For Cellular Inhibitor of Apoptosis-1 the PCR primers were: […]
Target sites are indicated by nucleotide numbers, as given in the sequence source reference (Genbank accession no. U37547), to which the oligonucleotide binds. All compounds in Table 1 are oligodeoxynucleotides with phosphorothioate backbones (internucleoside linkages) throughout. […] Data are averages from three experiments. If present, “N.D.” indicates “no data”.

Compared with “ISIS 23332: phosphorothioate oligodeoxynucleotide aaattacactccatagaa, 5′ UTR target site 4 (antisense dA*dA*dA*dT*dT*dA*dC*dA*dC*dT*dC*dC*dA*dT*dA*dG*dA*dA)”, “ISIS 23333: phosphorothioate oligodeoxynucleotide aatcaactctactagcct, 5′ UTR target site 68 (antisense dA*dA*dT*dC*dA*dA*dC*dT*dC*dT*dA*dC*dT*dA*dG*dC*dC*dT)” is higher in “% Inhibition of Cellular Inhibitor of Apoptosis-1 mRNA levels” value (“% Inhibition” below): 0% for the first, 47% for the second.

“ISIS 23334: phosphorothioate oligodeoxynucleotide ctagtgttatcagaaacg, 5′ UTR target site 139 (antisense dC*dT*dA*dG*dT*dG*dT*dT*dA*dT*dC*dA*dG*dA*dA*dA*dC*dG)” and “ISIS 23335: phosphorothioate oligodeoxynucleotide ttaaggactattcagcta, 5′ UTR target site 216 (antisense dT*dT*dA*dA*dG*dG*dA*dC*dT*dA*dT*dT*dC*dA*dG*dC*dT*dA)” are the same in “% Inhibition” value: 0% for the first, 0% for the second.

“ISIS 23336: phosphorothioate oligodeoxynucleotide ttagttagccataaaatt, 5′ UTR target site 287 (antisense dT*dT*dA*dG*dT*dT*dA*dG*dC*dC*dA*dT*dA*dA*dA*dA*dT*dT)” and “ISIS 23337: phosphorothioate oligodeoxynucleotide actttcttcctaactttg, 5′ UTR target site 352 (antisense dA*dC*dT*dT*dT*dC*dT*dT*dC*dC*dT*dA*dA*dC*dT*dT*dT*dG)” are the same in “% Inhibition” value: 0% for the first, 0% for the second.

“ISIS 23338: phosphorothioate oligodeoxynucleotide ttggcttaaagttcaaaa, 5′ UTR target site 435 (antisense dT*dT*dG*dG*dC*dT*dT*dA*dA*dA*dG*dT*dT*dC*dA*dA*dA*dA)” and “ISIS 23339: phosphorothioate oligodeoxynucleotide aagtcaatacccacaagc, 5′ UTR target site 497 (antisense dA*dA*dG*dT*dC*dA*dA*dT*dA*dC*dC*dC*dA*dC*dA*dA*dG*dC)” are the same in “% Inhibition” value: 0% for the first, 0% for the second.

Going from “ISIS 23340: phosphorothioate oligodeoxynucleotide aaaagctaagttcacaca, 5′ UTR target site 576 (antisense dA*dA*dA*dA*dG*dC*dT*dA*dA*dG*dT*dT*dC*dA*dC*dA*dC*dA)” to “ISIS 23341: phosphorothioate oligodeoxynucleotide aagcactttaacatgaca, 5′ UTR target site 661 (antisense dA*dA*dG*dC*dA*dC*dT*dT*dT*dA*dA*dC*dA*dT*dG*dA*dC*dA)”, the “% Inhibition” value rises from 0% to 15%.

Compared with “ISIS 23342: phosphorothioate oligodeoxynucleotide tatatgcaggcttctttc, 5′ UTR target site 684 (antisense dT*dA*dT*dA*dT*dG*dC*dA*dG*dG*dC*dT*dT*dC*dT*dT*dT*dC)”, “ISIS 23343: phosphorothioate oligodeoxynucleotide ataacagaccaattactg, 5′ UTR target site 724 (antisense dA*dT*dA*dA*dC*dA*dG*dA*dC*dC*dA*dA*dT*dT*dA*dC*dT*dG)” is lower in “% Inhibition” value: 23% for the first, 0% for the second.

“ISIS 23344: phosphorothioate oligodeoxynucleotide tgccttttatttatattt, 5′ UTR target site 764 (antisense dT*dG*dC*dC*dT*dT*dT*dT*dA*dT*dT*dT*dA*dT*dA*dT*dT*dT)” and “ISIS 23345: phosphorothioate oligodeoxynucleotide aggtggatgcacttctga, 5′ UTR target site 858 (antisense dA*dG*dG*dT*dG*dG*dA*dT*dG*dC*dA*dC*dT*dT*dC*dT*dG*dA)” are the same in “% Inhibition” value: 0% for the first, 0% for the second.

Compared with “ISIS 23346: phosphorothioate oligodeoxynucleotide ggtaacctaagtgctatt, 5′ UTR target site 915 (antisense dG*dG*dT*dA*dA*dC*dC*dT*dA*dA*dG*dT*dG*dC*dT*dA*dT*dT)”, “ISIS 23347: phosphorothioate oligodeoxynucleotide tcaggtaggatgagtatc, 5′ UTR target site 994 (antisense dT*dC*dA*dG*dG*dT*dA*dG*dG*dA*dT*dG*dA*dG*dT*dA*dT*dC)” is higher in “% Inhibition” value: 0% for the first, 11% for the second.

“ISIS 23348: phosphorothioate oligodeoxynucleotide tttcttcacatgaactaa, 5′ UTR target site 1097 (antisense dT*dT*dT*dC*dT*dT*dC*dA*dC*dA*dT*dG*dA*dA*dC*dT*dA*dA)” and “ISIS 23349: phosphorothioate oligodeoxynucleotide acctgggaaaagtctttg, Coding target site 1178 (antisense dA*dC*dC*dT*dG*dG*dG*dA*dA*dA*dA*dG*dT*dC*dT*dT*dT*dG)” are the same in “% Inhibition” value: 0% for the first, 0% for the second.

“ISIS 23350: phosphorothioate oligodeoxynucleotide caatctgacaagatcgtg, Coding target site 1234 (antisense dC*dA*dA*dT*dC*dT*dG*dA*dC*dA*dA*dG*dA*dT*dC*dG*dT*dG)” and “ISIS 23351: phosphorothioate oligodeoxynucleotide tagagttcacaggaaaag, Coding target site 1285 (antisense dT*dA*dG*dA*dG*dT*dT*dC*dA*dC*dA*dG*dG*dA*dA*dA*dA*dG)” are the same in “% Inhibition” value: 0% for the first, 0% for the second.

First: ISIS 23352: phosphorothioate oligodeoxynucleotide ccagattctgaataaagc, Coding target site 1491 (antisense dC*dC*dA*dG*dA*dT*dT*dC*dT*dG*dA*dA*dT*dA*dA*dA*dG*dC)
Second: ISIS 23353: phosphorothioate oligodeoxynucleotide tttctcattggagacgta, Coding target site 1540 (antisense dT*dT*dT*dC*dT*dC*dA*dT*dT*dG*dG*dA*dG*dA*dC*dG*dT*dA)
The “% Inhibition” value of the first is lower: 0% for the first, 32% for the second.

Compared with “ISIS 23354: phosphorothioate oligodeoxynucleotide ccaaggtgggagataatg, Coding target site 1572 (antisense dC*dC*dA*dA*dG*dG*dT*dG*dG*dG*dA*dG*dA*dT*dA*dA*dT*dG)”, “ISIS 23355: phosphorothioate oligodeoxynucleotide gagtaagaaccactgaac, Coding target site 1603 (antisense dG*dA*dG*dT*dA*dA*dG*dA*dA*dC*dC*dA*dC*dT*dG*dA*dA*dC)” is lower in “% Inhibition” value: 3% for the first, 0% for the second.

For “ISIS 23356: phosphorothioate oligodeoxynucleotide tagaattaagagggtttg, Coding target site 1632 (antisense dT*dA*dG*dA*dA*dT*dT*dA*dA*dG*dA*dG*dG*dG*dT*dT*dT*dG)”, the “% Inhibition” value was 0%.

Same assay, conditions: summary of Table 1; real-time PCR of mRNA levels

For “ISIS 23333: phosphorothioate oligodeoxynucleotide aatcaactctactagcct, 5′ UTR target site 68 (antisense dA*dA*dT*dC*dA*dA*dC*dT*dC*dT*dA*dC*dT*dA*dG*dC*dC*dT)”, the “inhibition of Cellular Inhibitor of Apoptosis-1 expression” value (from here on “inhibition … of Apoptosis-1 expression”) was “at least 20%”.
With “ISIS 23342: phosphorothioate oligodeoxynucleotide tatatgcaggcttctttc, 5′ UTR target site 684 (antisense dT*dA*dT*dA*dT*dG*dC*dA*dG*dG*dC*dT*dT*dC*dT*dT*dT*dC)” the “inhibition … of Apoptosis-1 expression” value was “at least 20%”.
With “ISIS 23353: phosphorothioate oligodeoxynucleotide tttctcattggagacgta, Coding target site 1540 (antisense dT*dT*dT*dC*dT*dC*dA*dT*dT*dG*dG*dA*dG*dA*dC*dG*dT*dA)” the “inhibition … of Apoptosis-1 expression” value was “at least 20%”.
